Experimental data published in PubChem BioAssay AID1549 (Sanford-Burnham Center for Chemical Genomics, 2009).
The source made the active and inactive calls. No rule for the calls is given here.

Target: Influenza A virus M2 proton channel (A/TW/4845/1999 H1N1)
Experiment: NMR binding screen, influenza A virus M2 proton channel, Kd (AID 1549)
Settings: M2 protein

Row | Structure (SMILES) | Kd
1 | O=C1CSC(=S)N1Cc1cccnc1 | > 4 mM (inactive)
2 | CNC(C)[C@H](O)c1ccccc1 (stereo partly drawn) | > 4 mM (inactive)
3 | Clc1ccc(-c2nnc3ccccn23)cc1 | > 4 mM (inactive)
4 | O=C1NC(=O)C(=Cc2ccccc2)C(=O)N1 | > 4 mM (inactive)
5 | Cn1c(=O)c2cn3ncccc3c2n(C)c1=O | > 4 mM (inactive)
6 | NC1=NC(=O)/C(=C/c2ccc(O)c(Cl)c2)S1 | > 4 mM (inactive)
7 | Cc1cc(O)c(NC(=O)c2ccco2)cc1C | > 4 mM (inactive)
8 | COc1ccc(-c2nc(N)n(C(C)=O)n2)cc1 | > 4 mM (inactive)
9 | Oc1cc(O)c2c(c1)O[C@H](c1cc(O)c(O)c(O)c1)[C@H](O)C2 | > 4 mM (inactive)
10 | Cc1ccc(NC(=O)/C=C2\SC(=O)NC2=O)cc1 | > 4 mM (inactive)
11 | CCOc1ccc(C(=O)c2ccncc2)cc1 | > 4 mM (inactive)
12 | O=C(Nc1ccon1)c1ccc(Cl)s1 | > 4 mM (inactive)
13 | Nc1ccc(CN2CCOCC2)cc1 | > 4 mM (inactive)
14 | Cc1nn2c(-c3ccncc3)nnc2c2ccccc12 | > 4 mM (inactive)
15 | NC(=O)NCCCC(N)C(=O)O (stereo not drawn) | > 4 mM (inactive)
16 | Cc1cccc(NS(=O)(=O)c2cccs2)n1 | > 4 mM (inactive)
17 | CSc1nnc2c(n1)OC(C)=Nc1ccccc1-2 | > 4 mM (inactive)
18 | CC1=C(C(N)=O)C(c2ccccc2)NC(=O)N1 (stereo not drawn) | > 4 mM (inactive)
19 | CC1(C)O[C@H]2CC(=O)OC[C@]23[C@H]2CC[C@@]4(C)[C@H](c5ccoc5)OC(=O)[C@H]5O[C@]54[C@]2(C)C(=O)C[C@@H]13 | > 4 mM (inactive)
20 | CN1CCN(C2CCSC2)CC1 (stereo not drawn) | > 4 mM (inactive)
21 | CSc1nnc2c(n1)OC=Nc1ccccc1-2 | > 4 mM (inactive)
22 | OCc1ccc(OC(F)(F)F)cc1 | > 4 mM (inactive)
23 | CC(=O)O[C@H]1CC[C@@]2(C)C(CC[C@]3(C)C2CC=C2C4CC(C)(C)CC[C@]4(C)CC[C@]23C)C1(C)C (stereo partly drawn) | > 4 mM (inactive)
24 | Cc1nn(-c2ccccc2C(=O)O)c(=O)c2ccccc12 | > 4 mM (inactive)
25 | COc1ccc(-c2coc3c(OC)c(OC)cc(OC)c3c2=O)cc1 | > 4 mM (inactive)

Row | Structure (SMILES) | Kd
26 | Cc1nnc2ccc(N3CCCC3)nn12 | > 4 mM (inactive)
27 | O=C(O)Cn1nc(-c2ccccc2)c2ccccc2c1=O | > 4 mM (inactive)
28 | O=C1CN(c2ccccc2)CC(=O)N1 | > 4 mM (inactive)
29 | CC(=O)NCC1(c2ccccc2)CCOCC1 | > 4 mM (inactive)
30 | COc1cc(/C=C/C(=O)O)cc(OC)c1OC | > 4 mM (inactive)
31 | CC1CCc2cc(F)ccc2N1C(=O)c1ccc(=O)[nH]n1 (stereo not drawn) | > 4 mM (inactive)
32 | O=C1c2cccnc2C(=O)N1Cc1ccco1 | > 4 mM (inactive)
33 | OC[C@@H](O)[C@@H](O[C@@H]1O[C@H](CO)[C@@H](O)[C@H](O)[C@H]1O)[C@H](O)[C@@H](O)CO | > 4 mM (inactive)
34 | O=C(Nc1cnccn1)c1cccnc1 | > 4 mM (inactive)
35 | Nc1nc(SCc2ccccc2)ns1 | > 4 mM (inactive)
36 | COC1=CC(=O)C=C(OC)C1=O | > 4 mM (inactive)
37 | Nc1nonc1-c1nc2ccccc2[nH]1 | > 4 mM (inactive)
38 | NC(=O)c1ccc(C(N)=O)c(-c2ccccc2)c1 | > 4 mM (inactive)
39 | Cc1nc(-c2ccc(NS(C)(=O)=O)cc2)cs1 | > 4 mM (inactive)
40 | OCc1ccccc1CN1CCOCC1 | > 4 mM (inactive)
41 | O=C(O)Cn1nnn(-c2ccccc2)c1=S | > 4 mM (inactive)
42 | COc1cc2c(cc1OC)C(=O)OC2 | > 4 mM (inactive)
43 | COc1ccc2c(c1)CCCN2C(N)=O | > 4 mM (inactive)
44 | O=C1CSC(=O)N1CN1CCCC1 | > 4 mM (inactive)
45 | CC12CN3CC(C)(CN(C1)C3c1cccs1)C2O (stereo not drawn) | > 4 mM (inactive)
46 | O=C(O)C1(S(=O)(=O)c2ccccc2)CC1 | > 4 mM (inactive)
47 | CN1CCN(C(=O)c2cc(-c3ccccc3)on2)CC1 | > 4 mM (inactive)
48 | CC(=O)Nc1sc(C)c(C)c1C(N)=O | > 4 mM (inactive)
49 | O=c1c(O)cccc2cc(O)c(O)c(O)c12 | > 4 mM (inactive)
50 | CN1CCN(C(=O)c2ccccc2N)CC1 | > 4 mM (inactive)

Row | Structure (SMILES) | Kd
51 | CN(C)S(=O)(=O)c1ccccc1C#N | > 4 mM (inactive)
52 | Cn1nccc1N | > 4 mM (inactive)
53 | O=C(O)c1ccc(CN2CCOCC2)cc1 | > 4 mM (inactive)
54 | O=C1O[C@H](C(O)CO)C(O)=C1O (stereo partly drawn) | > 4 mM (inactive)
55 | CCOC(=O)N1CCCC1c1cccnc1 (stereo not drawn) | > 4 mM (inactive)
56 | CC(=O)OCc1cc(=O)n(C)c(=O)n1C | > 4 mM (inactive)
57 | CCC(CCC(C)[C@H]1CCC2C3CC=C4C[C@@H](O)CC[C@]4(C)C3CC[C@@]21C)C(C)C (stereo partly drawn) | > 4 mM (inactive)
58 | Cc1ccccc1NC(=O)CSc1ccnc(=O)[nH]1 | > 4 mM (inactive)
59 | CC(C)n1nnc2cc(C(=O)O)ccc21 | > 4 mM (inactive)
60 | Cc1cc(C(=O)Nc2sc(C)c(C)c2C#N)no1 | > 4 mM (inactive)
61 | CCn1cnc2scc(-c3ccccc3)c2c1=O | > 4 mM (inactive)
62 | CCOC(=O)c1[nH]c(C)cc1C | > 4 mM (inactive)
63 | Cn1[nH]c(C(F)(F)F)cc1=O | > 4 mM (inactive)
64 | S=c1[nH]ncn1-c1ccccc1 | > 4 mM (inactive)
65 | CC(=O)c1ccc[nH]1 | > 4 mM (inactive)
66 | Cc1cc(C(=O)Nc2sc3c(c2C#N)CCC3)no1 | > 4 mM (inactive)
67 | COc1ccc(CN2CCC(O)CC2)c(O)c1 | > 4 mM (inactive)
68 | Cc1cc(N)on1 | > 4 mM (inactive)
69 | NC(=O)COc1cccc2cccnc12 | > 4 mM (inactive)
70 | O=C(NC1=NCCS1)c1ccc([N+](=O)[O-])cc1Cl | > 4 mM (inactive)
71 | CN(C)c1nc(N)nc(-c2nc3ccccc3s2)n1 | > 4 mM (inactive)
72 | COc1cc([C@H]2Oc3cc([C@H]4Oc5cc(O)cc(O)c5C(=O)[C@@H]4O)ccc3O[C@@H]2CO)ccc1O | > 4 mM (inactive)
73 | O=C(O)c1ccc(-n2ccnc2)cc1 | > 4 mM (inactive)
74 | CC(=O)Nc1ccc(Cl)c(C(N)=O)c1 | > 4 mM (inactive)
75 | COc1ccccc1C(=O)Nc1ccccn1 | > 4 mM (inactive)

Row | Structure (SMILES) | Kd
76 | Oc1cc2c(cc1O)C1c3ccc(O)c(O)c3OCC1(O)C2 (stereo not drawn) | > 4 mM (inactive)
77 | O=c1cc(O)n(-c2ccc(F)cc2)c(=S)[nH]1 | > 4 mM (inactive)
78 | Cc1nnc(N2CCc3ccccc3C2)[nH]c1=O | > 4 mM (inactive)
79 | NC(=O)CSCc1c(Cl)cccc1Cl | > 4 mM (inactive)
80 | Nc1cccnc1N1CCOCC1 | > 4 mM (inactive)
81 | O=C(NCCO)c1ccccc1I | > 4 mM (inactive)
82 | Nc1ccc(-c2cnco2)cc1 | > 4 mM (inactive)
83 | COC(=O)c1ccc(N2CCCC2)nc1 | > 4 mM (inactive)
84 | NC(=O)c1ccsc1NC(=O)c1ccccc1[N+](=O)[O-] | > 4 mM (inactive)
85 | COc1cc2ccc(=O)oc2c(OC)c1OC | > 4 mM (inactive)
86 | Cc1ncoc1C(=O)Nc1ccccc1C(N)=O | > 4 mM (inactive)
87 | CC(=O)c1c(C)nn(CC(=O)O)c1C | > 4 mM (inactive)
88 | C=C[C@H]1CN2CC[C@H]1C[C@@H]2[C@H](O)c1ccnc2ccccc12 | > 4 mM (inactive)
89 | CC1=NCCc2c1[nH]c1cc(O)ccc21 | > 4 mM (inactive)
90 | Cc1ccc(Nc2nnns2)cc1C | > 4 mM (inactive)
91 | CNC(=O)c1ccccc1-c1ccccc1 | > 4 mM (inactive)
92 | CCOC(=O)c1c(C)cc(OC)cc1O | > 4 mM (inactive)
93 | O=C(CC1NC(=O)NC1=O)Nc1ccccc1 (stereo not drawn) | > 4 mM (inactive)
94 | CN(C)C(=O)N1CCN(C(=O)c2ccco2)CC1 | > 4 mM (inactive)
95 | COc1ccc(C(=O)NNC(=S)NC(C)=O)cc1 | > 4 mM (inactive)
96 | Nc1ccccc1OC(F)(F)F | > 4 mM (inactive)
97 | O=C(O)CC1NCCNC1=O (stereo not drawn) | > 4 mM (inactive)
98 | COc1ccc(/C=C2/SC(N)=NC2=O)c(OC)c1 | > 4 mM (inactive)
99 | O=C(Nc1cccc(C(F)(F)F)c1)c1cccnc1 | > 4 mM (inactive)
100 | CNC(=S)Nc1ccc2c(c1)OCO2 | > 4 mM (inactive)

Row | Structure (SMILES) | Kd
101 | CC(=O)O[C@@H]1CC[C@@]2(C)C(CC[C@]3(C)C2CC=C2C4CC(C)(C)CC[C@]4(C(=O)O)CC[C@]23C)C1(C)C (stereo partly drawn) | > 4 mM (inactive)
102 | Nc1cc(=O)[nH]c(=O)n1-c1ccccc1 | > 4 mM (inactive)
103 | O=C(O)CC1Sc2ccccc2NC1=O (stereo not drawn) | > 4 mM (inactive)
104 | O=C(O)c1csc(-c2ccccc2)n1 | > 4 mM (inactive)
105 | CN(C)c1nc(N2CCOCC2)c2cnn(C)c2n1 | > 4 mM (inactive)
106 | CSc1nc(NC(C)(C)C)nc(N2CCOCC2)n1 | > 4 mM (inactive)
107 | COc1ccccc1NC(=O)/C=N/O | > 4 mM (inactive)
108 | Oc1ccccc1C(=S)N1CCCCCC1 | > 4 mM (inactive)
109 | c1ccc(-c2csc3ncn4nnnc4c23)cc1 | > 4 mM (inactive)
110 | Cc1cc(C)n(-c2nncn2N)n1 | > 4 mM (inactive)
111 | Cc1ccc(C(=O)N2CCC(C(=O)O)CC2)cc1 | > 4 mM (inactive)
112 | CC(=O)O[C@H]1C[C@@H](OC(C)=O)C(C)(C)C2CC(=O)[C@]3(C)C(CC[C@@]4(C)[C@H](C(=O)O)OC(=O)C5OC543)[C@]21C (stereo partly drawn) | > 4 mM (inactive)
113 | CN(C)c1oc(-c2ccccc2Cl)nc1C#N | > 4 mM (inactive)
114 | COC(=O)C[C@@H]1C2(C)C(=O)[C@@H](CC3=C4C=C(OC)O[C@@H](c5ccoc5)[C@]4(C)CCC32)[C@H](O)C1(C)C (stereo partly drawn) | > 4 mM (inactive)
115 | c1ccc2c(NC3=NCCS3)cccc2c1 | > 4 mM (inactive)
116 | Clc1ncc2[nH]cnc2n1 | > 4 mM (inactive)
117 | COc1ccc2c(c1)c1n[nH]c(=S)nc1n2C | > 4 mM (inactive)
118 | CCCNC(CC(=O)Nc1cccnc1)C(=O)O (stereo not drawn) | > 4 mM (inactive)
119 | COc1ccc(/C=C2/N=C(N)SC2=O)cc1 | > 4 mM (inactive)
120 | CCOC(=O)c1c[nH]c2c(F)cccc2c1=O | > 4 mM (inactive)
121 | Oc1ccccc1N1CCOCC1 | > 4 mM (inactive)
122 | O=C(Nc1ccon1)c1ccc2c(c1)OCO2 | > 4 mM (inactive)
123 | Cn1nc(C(=O)N2CCOCC2)c2ccccc2c1=O | > 4 mM (inactive)
